From paper PMC8757360 (ACS Omega, 2021)

Assays:
[1] = system: MCF-7, T47D, MDA-MB-231, and A549; assay: MTT cytotoxicity, range stated over four cancer cell lines; type: cell-based; conditions: Homo sapiens, 72 h, read-out: IC50 values ranging over four cancer cell lines
SARS-CoV-2 spike RBD = SARS-CoV-2 spike RBD (Severe acute respiratory syndrome coronavirus 2, UniProt P0DTC2); assay: biochemical; type: binding
T47D = assay: MTT cytotoxicity, T47D; conditions: for IC50: Homo sapiens, T47D, 72 h, read-out: IC50 T47D; for cytotoxic effect, fold more potent than berberine: T47D cells, versus positive control berberine
HEK-293T-ACE2h cells = conditions: human
human ACE2 = human ACE2 (Homo sapiens, UniProt Q9BYF1); assay: biochemical; type: binding
MDA-MB-231 = assay: MTT cytotoxicity, MDA-MB-231; type: cell-based; conditions: Homo sapiens, MDA-MB-231, 72 h, read-out: IC50 MDA-MB-231
MCF-7 = assay: MTT cytotoxicity, MCF-7; conditions: for IC50: Homo sapiens, MCF7, 72 h, read-out: IC50 MCF-7
A549 = assay: MTT cytotoxicity, A549; type: cell-based; conditions: Homo sapiens, A549, 72 h, read-out: IC50 A549
[2] = system: SARS-CoV-2 spike pseudovirus; type: cell-based

Chain of human ACE2 (Q9BYF1 18-805): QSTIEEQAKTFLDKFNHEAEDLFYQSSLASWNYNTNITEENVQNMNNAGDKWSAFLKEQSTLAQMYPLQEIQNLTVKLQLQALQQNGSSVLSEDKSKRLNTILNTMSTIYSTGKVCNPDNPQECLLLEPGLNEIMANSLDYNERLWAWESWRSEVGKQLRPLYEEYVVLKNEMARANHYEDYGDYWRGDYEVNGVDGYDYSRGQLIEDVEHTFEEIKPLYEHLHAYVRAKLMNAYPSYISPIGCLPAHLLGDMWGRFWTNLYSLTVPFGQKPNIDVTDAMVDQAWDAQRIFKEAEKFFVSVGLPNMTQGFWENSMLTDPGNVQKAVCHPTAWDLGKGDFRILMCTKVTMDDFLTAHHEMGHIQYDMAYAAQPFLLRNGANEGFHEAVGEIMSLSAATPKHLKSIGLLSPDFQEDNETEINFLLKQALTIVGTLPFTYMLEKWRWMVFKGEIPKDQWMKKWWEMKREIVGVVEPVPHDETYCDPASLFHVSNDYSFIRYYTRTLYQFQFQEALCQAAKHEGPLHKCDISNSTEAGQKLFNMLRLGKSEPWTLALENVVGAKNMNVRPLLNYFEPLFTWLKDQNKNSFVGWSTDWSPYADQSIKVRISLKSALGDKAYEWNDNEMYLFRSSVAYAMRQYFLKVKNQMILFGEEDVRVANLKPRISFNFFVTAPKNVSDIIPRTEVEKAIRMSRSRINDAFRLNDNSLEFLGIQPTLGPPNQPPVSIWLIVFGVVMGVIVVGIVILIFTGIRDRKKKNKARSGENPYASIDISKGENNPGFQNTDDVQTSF

**Q.** With c1ccc(-c2nc3ccccc3nc2-c2ccccc2)cc1 [4aa, 2,3-Diphenylquinoxaline] as the compound, how does the IC50 [1] read?
**A.** 6.25 to 28.6 µM

**Q.** What about the Kd (SARS-CoV-2 spike RBD) of the same compound?
**A.** 1000 ± 761 µM

**Q.** What about the IC50 (T47D) of the same compound?
**A.** 11.4 ± 1.17 µM

**Q.** What about the “CC0 (maximum nontoxic concentration)” value (HEK-293T-ACE2h cells) of the same compound?
**A.** >250 µM

**Q.** And the “TC50 (concentration that caused 50% cells' death)” value (HEK-293T-ACE2h cells)?
**A.** >25 µM

**Q.** What about the Kd (human ACE2) of the same compound?
**A.** 5890 ± 1670 µM

**Q.** And the IC50 (MDA-MB-231)?
**A.** 28.6 ± 1.85 µM

**Q.** What about the IC50 (MCF-7) of the same compound?
**A.** 16.7 ± 1.34 µM

**Q.** What about the IC50 (A549) of the same compound?
**A.** 26.3 ± 1.96 µM

**Q.** For Cc1ccc2nc(-c3ccccc3)c(-c3ccccc3)nc2c1 [4ab, 6-Methyl-2,3-diphenylquinoxaline], which IC50 [1] is on record?
**A.** 6.25 to 28.6 µM

**Q.** What about the IC50 (T47D) of the same compound?
**A.** 6.77 ± 0.57 µM

**Q.** What about the “cytotoxic effect, fold more potent than berberine” value (T47D) of the same compound?
**A.** 3.94 fold

**Q.** What about the “CC0 (maximum nontoxic concentration)” value (HEK-293T-ACE2h cells) of the same compound?
**A.** 62.5 µM

**Q.** And the “TC50 (concentration that caused 50% cells' death)” value (HEK-293T-ACE2h cells)?
**A.** 288.40 ± 17.65 µM

**Q.** What about the IC50 (MDA-MB-231) of the same compound?
**A.** 18.2 ± 1.34 µM

**Q.** And the IC50 (MCF-7)?
**A.** 10 ± 0.55 µM

**Q.** And the IC50 (A549)?
**A.** 19.7 ± 1.28 µM

**Q.** With COc1ccc2nc(-c3ccccc3)c(-c3ccccc3)nc2c1 [4ac, 6-Methoxy-2,3-diphenylquinoxaline] as the compound, how does the IC50 (T47D) read?
**A.** > 50 µM

**Q.** And the “CC0 (maximum nontoxic concentration)” value (HEK-293T-ACE2h cells)?
**A.** 50 µM

**Q.** And the “TC50 (concentration that caused 50% cells' death)” value (HEK-293T-ACE2h cells)?
**A.** 116.03 ± 4.28 µM

**Q.** And the IC50 (MDA-MB-231)?
**A.** > 50 µM

**Q.** And the IC50 (MCF-7)?
**A.** > 50 µM

**Q.** And the IC50 (A549)?
**A.** > 50 µM

**Q.** For Clc1ccc2nc(-c3ccccc3)c(-c3ccccc3)nc2c1 [4ad, 6-Chloro-2,3-diphenylquinoxaline], which Kd (SARS-CoV-2 spike RBD) is on record?
**A.** 8.16 ± 1.34 µM

**Q.** And the “SI (selectivity index, TC50/IC50)” value [2]?
**A.** >23.49

**Q.** And the IC50 (T47D)?
**A.** > 50 µM

**Q.** What about the “CC0 (maximum nontoxic concentration)” value (HEK-293T-ACE2h cells) of the same compound?
**A.** >25 µM

**Q.** What about the “TC50 (concentration that caused 50% cells' death)” value (HEK-293T-ACE2h cells) of the same compound?
**A.** >500 µM

**Q.** And the Kd (human ACE2)?
**A.** 4.02 ± 2.03 µM

**Q.** And the IC50 (MDA-MB-231)?
**A.** > 50 µM

**Q.** And the IC50 (MCF-7)?
**A.** > 50 µM

**Q.** What about the IC50 (A549) of the same compound?
**A.** > 50 µM

**Q.** For N#Cc1ccc2nc(-c3ccccc3)c(-c3ccccc3)nc2c1 [4ae, 2,3-Diphenylquinoxaline-6-carbonitrile], which IC50 (T47D) is on record?
**A.** > 50 µM

**Q.** What about the “CC0 (maximum nontoxic concentration)” value (HEK-293T-ACE2h cells) of the same compound?
**A.** 125 µM

**Q.** What about the “TC50 (concentration that caused 50% cells' death)” value (HEK-293T-ACE2h cells) of the same compound?
**A.** 303.27 ± 9.51 µM

**Q.** And the IC50 (MDA-MB-231)?
**A.** > 50 µM

**Q.** What about the IC50 (MCF-7) of the same compound?
**A.** > 50 µM

**Q.** What about the IC50 (A549) of the same compound?
**A.** > 50 µM

**Q.** For COC(=O)c1ccc2nc(-c3ccccc3)c(-c3ccccc3)nc2c1 [4af, Methyl 2,3-diphenylquinoxaline-6-carboxylate], which IC50 (T47D) is on record?
**A.** > 50 µM

**Q.** What about the “CC0 (maximum nontoxic concentration)” value (HEK-293T-ACE2h cells) of the same compound?
**A.** 100 µM

**Q.** What about the “TC50 (concentration that caused 50% cells' death)” value (HEK-293T-ACE2h cells) of the same compound?
**A.** >100 µM

**Q.** What about the IC50 (MDA-MB-231) of the same compound?
**A.** > 50 µM

**Q.** And the IC50 (MCF-7)?
**A.** > 50 µM

**Q.** And the IC50 (A549)?
**A.** > 50 µM

**Q.** Which results are given for c1ccc(-c2nc3cc4ccccc4cc3nc2-c2ccccc2)cc1 [4ag, 2,3-Diphenylbenzo[g]quinoxaline]?
**A.** IC50 (T47D): 20.5 ± 1.64 µM; CC0 (maximum nontoxic concentration) (HEK-293T-ACE2h cells): 50 µM; TC50 (concentration that caused 50% cells' death) (HEK-293T-ACE2h cells): 107.20 ± 1.64 µM; IC50 (MDA-MB-231): 45 ± 1.57 µM; IC50 (MCF-7): > 50 µM; IC50 (A549): 44.5 ± 3.55 µM

**Q.** How did the IC50 [1] turn out when Cc1ccc(-c2nc3ccccc3nc2-c2ccccc2)cc1 [4ba, 2-Phenyl-3-(p-tolyl)quinoxaline] was run?
**A.** 6.25 to 28.6 µM

**Q.** What about the IC50 (T47D) of the same compound?
**A.** 9.76 ± 1.3 µM

**Q.** And the “CC0 (maximum nontoxic concentration)” value (HEK-293T-ACE2h cells)?
**A.** 125 µM

**Q.** What about the “TC50 (concentration that caused 50% cells' death)” value (HEK-293T-ACE2h cells) of the same compound?
**A.** 271.67 ± 13.00 µM

**Q.** And the IC50 (MDA-MB-231)?
**A.** 21.4 ± 1.19 µM

**Q.** And the IC50 (MCF-7)?
**A.** 15.7 ± 1.18 µM

**Q.** What about the IC50 (A549) of the same compound?
**A.** 24.1 ± 1.11 µM

**Q.** How did the Kd (SARS-CoV-2 spike RBD) turn out when COc1ccc(-c2nc3ccccc3nc2-c2ccccc2)cc1 [4ca, 2-(4-Methoxyphenyl)-3-phenylquinoxaline] was run?
**A.** 15.5 ± 1.14 µM

**Q.** And the “SI (selectivity index, TC50/IC50)” value [2]?
**A.** 14.05

**Q.** What about the IC50 (T47D) of the same compound?
**A.** > 50 µM

**Q.** And the “CC0 (maximum nontoxic concentration)” value (HEK-293T-ACE2h cells)?
**A.** 125 µM

**Q.** And the “TC50 (concentration that caused 50% cells' death)” value (HEK-293T-ACE2h cells)?
**A.** 276.90 ± 13.45 µM

**Q.** And the Kd (human ACE2)?
**A.** 3.67 ± 0.66 µM

**Q.** And the IC50 (MDA-MB-231)?
**A.** 48.8 ± 1.01 µM

**Q.** What about the IC50 (MCF-7) of the same compound?
**A.** > 50 µM

**Q.** And the IC50 (A549)?
**A.** > 50 µM

**Q.** What does the source list for c1ccc(-c2ccc(-c3nc4ccccc4nc3-c3ccccc3)cc2)cc1 [4ha, 2-([1,1′-Biphenyl]-4-yl)-3-phenylquinoxaline]?
**A.** Kd (SARS-CoV-2 spike RBD): 135 ± 17.7 µM; SI (selectivity index, TC50/IC50) [2]: >3.50; IC50 (T47D): > 50 µM; CC0 (maximum nontoxic concentration) (HEK-293T-ACE2h cells): >250 µM; TC50 (concentration that caused 50% cells' death) (HEK-293T-ACE2h cells): >500 µM; Kd (human ACE2): 238 ± 57.3 µM; IC50 (MDA-MB-231): > 50 µM; IC50 (MCF-7): > 50 µM; IC50 (A549): > 50 µM

**Q.** How did the IC50 [1] turn out when Clc1ccc(-c2nc3ccccc3nc2-c2ccccc2)cc1 [4ia, 2-(4-Chlorophenyl)-3-phenylquinoxaline] was run?
**A.** 6.25 to 28.6 µM

**Q.** And the IC50 (T47D)?
**A.** 6.25 ± 0.73 µM

**Q.** And the “cytotoxic effect, fold more potent than berberine” value (T47D)?
**A.** 4.27 fold

**Q.** And the “CC0 (maximum nontoxic concentration)” value (HEK-293T-ACE2h cells)?
**A.** 25 µM

**Q.** What about the “TC50 (concentration that caused 50% cells' death)” value (HEK-293T-ACE2h cells) of the same compound?
**A.** 115.20 ± 9.72 µM

**Q.** And the IC50 (MDA-MB-231)?
**A.** 17.8 ± 0.69 µM

**Q.** And the IC50 (MCF-7)?
**A.** 7.3 ± 1.1 µM

**Q.** And the “cytotoxic effect, fold more potent than berberine” value (MCF-7; MCF-7 cells, versus positive control berberine)?
**A.** 1.96 fold

**Q.** And the IC50 (A549)?
**A.** 18.6 ± 0.25 µM

**Q.** What does the source list for Brc1ccc(-c2nc3ccccc3nc2-c2ccccc2)cc1 [4ja, 2-(4-Bromophenyl)-3-phenylquinoxaline]?
**A.** CC0 (maximum nontoxic concentration) (HEK-293T-ACE2h cells): 25 µM; TC50 (concentration that caused 50% cells' death) (HEK-293T-ACE2h cells): >100 µM

**Q.** Which results are given for Fc1ccc(-c2nc3ccccc3nc2-c2ccccc2)cc1 [4ka, 2-(4-Fluorophenyl)-3-phenylquinoxaline]?
**A.** CC0 (maximum nontoxic concentration) (HEK-293T-ACE2h cells): 25 µM; TC50 (concentration that caused 50% cells' death) (HEK-293T-ACE2h cells): >100 µM

**Q.** Which results are given for c1ccc(-c2nc3ccccc3nc2-c2ccc3ccccc3c2)cc1 [4pa, 2-(Naphthalen-2-yl)-3-phenylquinoxaline]?
**A.** IC50 (T47D): > 50 µM; CC0 (maximum nontoxic concentration) (HEK-293T-ACE2h cells): >25 µM; TC50 (concentration that caused 50% cells' death) (HEK-293T-ACE2h cells): >250 µM; IC50 (MDA-MB-231): > 50 µM; IC50 (MCF-7): > 50 µM; IC50 (A549): > 50 µM

**Q.** Which results are given for c1ccc(-c2nc3ccccc3nc2-c2ccsc2)cc1 [4ra, 2-Phenyl-3-(thiophen-3-yl)quinoxaline]?
**A.** IC50 (T47D): > 50 µM; CC0 (maximum nontoxic concentration) (HEK-293T-ACE2h cells): 62.5 µM; TC50 (concentration that caused 50% cells' death) (HEK-293T-ACE2h cells): 337.06 ± 15.49 µM; IC50 (MDA-MB-231): > 50 µM; IC50 (MCF-7): > 50 µM; IC50 (A549): > 50 µM

**Q.** How did the “SI (selectivity index, TC50/IC50)” value [2] turn out when C=CCc1cc(-c2cc(CC=C)c3oc(=O)n(Cc4nnc(-c5ccc(OC)cc5)o4)c3c2)c2oc(=O)n(Cc3nnc(-c4ccc(OC)cc4)o3)c2c1 [6p, 5′,7-Diallyl-3,3′-bis((5-(4-methoxyphenyl)-1,3,4-oxadiazol-2-yl)methyl)-[5,7′-bibenzo[d]oxazole]-2,2′(3H,3′H)-dione, reference compound] was run?
**A.** >8.40

**Q.** And the “CC0 (maximum nontoxic concentration)” value (HEK-293T-ACE2h cells)?
**A.** >100 µM

**Q.** What about the “TC50 (concentration that caused 50% cells' death)” value (HEK-293T-ACE2h cells) of the same compound?
**A.** >100 µM

**Q.** COc1ccc2cc3[n+](cc2c1OC)CCc1cc2c(cc1-3)OCO2 [berberine, reference compound] was tested. Which IC50 (T47D) did it give?
**A.** 26.7 ± 2.45 µM

**Q.** What about the IC50 (MDA-MB-231) of the same compound?
**A.** 18 ± 1.91 µM

**Q.** And the IC50 (MCF-7)?
**A.** 14.3 ± 1.44 µM

**Q.** What about the IC50 (A549) of the same compound?
**A.** 5.22 ± 0.44 µM
